Measurements from patent US20240139167A1, “LYSOSOME-ASSOCIATED MEMBRANE PROTEIN TARGETING COMPOUNDS AND USES THEREOF” (HADASIT MEDICAL RESEARCH SERVICES AND DEVELOPMENT LTD., priority 2021, published 2024).

Assays:
APBD primary fibroblasts = assay: Autophagic flux (LC3II/LC3I with lysosomal inhibitors, p62); type: cell-based, human
From the text: FIGS. 6A-6E include bar graphs of autophagic flux, determined by the extent of lysosomal inhibitors-dependent increase in the ratio of lipidated to non-lipidated LC3 (LC3II/LC3I) (6A); representative TEM images of liver tissue from 9.5 month old Gbe^ys/ys mice treated with Compound 11, or 5% DMSO vehicle (6B), G: Glycogen (alpha particles) and polyglucosan (structures with variable electron densities), L: Lysosomes, M: Mitochondria; right panel: lysosomal glycogen stain was quantified by ImageJ “count particle” tool; micrograph of LAMP1 knocked down and control APBD primary skin fibroblasts treated or not with Compound 1 and lysosomal inhibitors (LI) and quantification of 3 experiments and results of Student's t-tests. *, p<0.1; **, p<0.05; ***, p<0.01 (6C); graphs of lysosomal pH changes determined in APBD primary fibroblasts transduced with lentiviruses encoding for GFP or GFP-shLAMP1 and treated or not with Compound 1 for 24 h and confocal microscope images of cells treated with Lysosensor and stained for PAS (6D); and bar graph of ATP production rate assay in LAMP1-KD and GFP (Control) cells treated for 24 h (chronic) or on assay (acute) with Compound 1 (6E).

[1] = Pharmacokinetics, tissue levels by LC-MS/MS; type: in vivo, mice; conditions: 250 mg/kg subcutaneous
From the text: FIGS. 2A-2C include images and graphs of histopathological effects of Compound 1 and its pharmacokinetics: right panel present images of indicated tissues of sacrificed mice and stained for PG (arrows) with PAS following treatment with diastase; left panel, presents bar graphs quantifying PAS staining, based on analysis of 4 sections from each tissue in n=2 wild type, n=7 Gbe^ys/ys vehicle-treated, and n=9 Compound 1-treated mice (2A); bar graph quantifying total glycogen in the respective tissues (2B); graph of Compound 1pharmacokinetics (2C); 9 months old Gbe^ys/ys mice were SC-injected with 150 μL of Compound 1 at 250 mg/kg. Mice were sacrificed 30-, 60-, 90-, and 210-min post injection and the indicated tissues were removed, as well as 200 μL of serum drawn. […] Shown are means and SEM of results obtained from n=3 mice at each time point.
For pharmacokinetic analysis, 100 μL serum as well as brain, kidney, hind limb quad muscle, heart, liver, and spleen tissues were collected, homogenized, and extracted with acetonitrile following established guidelines. Calibration curves were made with 0, 1, 10, 100, and 1,000 ng/ml Compound 1 in 1 mg/ml solutions of 4-tert-butyl-2-(4H-1,2,4-triazol-4-yl)phenol (ChemBridge) as internal standard (IS). Tissue samples were then dissolved in 1 mg/ml IS solutions and spiked with 0-1,000 ng/ml Compound 1 to generate standard curves from which tissue levels of Compound 1 were determined. Samples were analyzed by the LC-MS/MS Sciex Triple Quad™ 5500 mass spectrometer.
Pharmacokinetic analysis is instrumental for explaining the effects of Compound 1 in-situ regardless of its innate capacity to modify polyglucosans in isolated cells. The reason for that is that timing of arrival, distribution and stability in the tissue are key determinants of the in-situ activity of any pharmacological agent. To determine the distribution and kinetic parameters of Compound 1 in different tissues, the inventors have treated Gbe^ys/ys mice with 250 mg/kg Compound 1 via subcutaneous injection, as done in the efficacy experiments. Mice were then sacrificed 0, 30-, 60-, 90-, and 210-min post administration and 100 μL serum as well as brain, kidney, hind limb skeletal muscle, heart, liver, and spleen tissues were collected, homogenized, extracted and their Compound 1 levels were analyzed by liquid chromatography tandem mass spectrometry (LC-MS/MS). The differential effects of Compound 1 on glycogen and polyglucosan content in the different tissues match its differential distribution and dwell time in each respective tissue. […] However, those levels persist up until 60 minutes post injection, which might account for the Compound 1-mediated reduction in polyglucosan, and glycogen content observed in these tissues. […] Based on the sampling times used, time to C. was 30 min for all the tissues studied indicating similar rate of absorption to all these tissues. The highest C. is observed in liver and kidney matching their well-established rapid perfusion.

[2] = system: APBD and HC skin fibroblasts; assay: Image-based phenotyping (IBP); type: cell-based, human
From the text: FIGS. 7A-7F include graphs of IBP parameters in HC and APBD fibroblasts and variable importance plot as an output of the random forest classification performed on the different variables (cell features) indicated on the x-axis. […] The different comparisons analyzed (comp A=Compound 1) are shown (7B); bar graphs of lysosomal parameters affected by Compound 1 in APBD and HC cells as analyzed by IBP (7C); Volcano plots of the proteins affected by APBD and Compound 1 under starvation and glycogen burden conditions (7D); Venn diagrams of proteins down-modulated by APBD and up modulated by Compound 1 and vice versa under starvation (48) and glycogen burden (48+24) conditions (7E); and gene ontology of proteins up-modulated (left) and down-modulated (right) by Compound 1 (7F).
APBD skin fibroblasts were seeded at 1,000 cells/well and cultured in specialized microscopy-grade 96-well plates (Grenier Bio-One, Germany). Following the different treatments, a mix of Thermo Scientific cellular fluorescent dyes in PBS was added to each well for 30 min at 37° C. in a 5% CO2 incubator. This mix (FIGS. 4C and 7B) included DAPI (1 μg/ml, nuclear (DNA) stain), MitoTracker Green (500 nM, potential-independent mitochondrial stain), TMRE ([…] mitochondrial stain), and Cell Mask Deep Red (0.5 μg/ml, cytosol stain). In FIG. 7C, only lysosomes were stained with LysoTracker Deep Red (75 nM). Cells were then fixed with 4% paraformaldehyde (PFA), washed with PBS and plates were transferred to an InCell2200 (GE Healthcare, U.K.) machine for image acquisition at 40× magnification. The output produced was based on comparative fluorescence intensity. Object segmentation was carried out using multi-target analysis in the GE analysis workstation to identify the nuclei and cell boundary. […]
As a first step, the inventors required a classification method, both wholistic and feature-specific, which would enable to quantify differences between APBD and HC cells and thus to estimate the restorative effect of Compound 1 on APBD cells. […]

COCCN(Cc1sccc1C)C(=O)c1cc(C)nc(O)c1 [Compound 1]
autophagic flux (sensitivity of LC3ii/LC3i ratio to lysosomal inhibitors) (APBD primary fibroblasts): increased autophagic flux | level of the autophagy substrate p62 (APBD primary fibroblasts): lowering the level of the autophagy substrate p62 | C. in liver and kidney, rank among tissues [1]: highest | C. in skeletal quadriceps muscle, rank among tissues [1]: lowest | accumulation in muscle [1]: negligible accumulation | levels in heart and brain [1]: intermediate levels | persistence of levels in heart and brain post injection [1]: ≤ 60 min | time to C. ([1]; all the tissues studied): 30 min | half-life ([1]; mouse, liver, sc, Gbe^ys/ys mice): > 3 h | IBP signature, features affected [2]: mostly affected nuclear and mitochondrial membrane potential (TMRE) parameters | lysosomal size ([2]; APBD cells): reduced lysosomal size | mitochondrial membrane potential (MMP) ([2]; APBD cells): hyperpolarized
